Assay results published in patent publication US20090155903A1, “PHARMACEUTICAL COMPOSITION AND METHOD” (Myriad Genetics, Incorporated, priority 2004, published 2009).

Assays:
COX2 = biological target: T1, COX2 (Homo sapiens, UniProt P35354); test: COX inhibitor screening kit (Cayman Chemical), COX2; assay type: biochemical; conditions: 100 μM compound
T1 construct: purchased Cayman Chemical, Ann Arbor, Mich; 560131
T1 sequence (P35354 18-604): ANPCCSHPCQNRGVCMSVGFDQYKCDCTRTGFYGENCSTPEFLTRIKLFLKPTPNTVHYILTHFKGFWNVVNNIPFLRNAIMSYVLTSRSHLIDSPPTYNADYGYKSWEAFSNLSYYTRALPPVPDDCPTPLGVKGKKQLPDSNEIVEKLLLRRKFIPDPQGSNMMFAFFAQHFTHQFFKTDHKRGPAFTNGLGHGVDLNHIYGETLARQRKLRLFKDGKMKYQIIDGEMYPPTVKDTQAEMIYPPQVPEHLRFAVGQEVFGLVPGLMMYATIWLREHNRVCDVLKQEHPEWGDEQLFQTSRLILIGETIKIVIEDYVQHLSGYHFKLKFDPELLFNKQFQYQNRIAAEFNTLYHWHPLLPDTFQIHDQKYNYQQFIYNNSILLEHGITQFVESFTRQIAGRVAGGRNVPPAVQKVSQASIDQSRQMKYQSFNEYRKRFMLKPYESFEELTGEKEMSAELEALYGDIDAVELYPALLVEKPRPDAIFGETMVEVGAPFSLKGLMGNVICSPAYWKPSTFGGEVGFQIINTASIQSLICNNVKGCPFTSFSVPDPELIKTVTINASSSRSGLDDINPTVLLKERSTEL
Description: (§1) The invention is based on the fact that the inventors have discovered that compounds of the formulae above lower Aβ42 Levels in in vitro APP processing assays. Furthermore, the compounds, in general, have negligible levels of COX inhibition and therefore are thought to essentially be devoid of the deleterious side-effects associated with COX inhibition. […] Preferred compounds of the formulae for use in the invention are those that have little or negligible COX1 and/or COX2 inhibition at 1 μM, more preferred are those that little or negligible COX1 and/or COX2 inhibition at 10 μM, and more preferred are those that little or negligible COX1 and/or COX2 inhibition at 100 μM compound. COX1 and COX2 inhibition can be determined with a COX inhibitor screening kit from e.g., Cayman Chemical, Ann Arbor, Mich. (Cat. #560131).
(§2) The invention is related to the inventors' discovery that compounds of Formula I-Va lower Aβ42 levels in APP processing assays. Furthermore, compounds of Formula I-Va, in general, have negligible levels of COX inhibition and therefore are thought to essentially be devoid of the deleterious side-effects associated with COX inhibition. […] Preferred compounds of Formula I-Va for use in the invention are those that have little or negligible COX1 and/or COX2 inhibition at 1 μM, more preferred are those that have little or negligible COX1 and/or COX2 inhibition at 10 μM, and more preferred are those that have little or negligible COX1 and/or COX2 inhibition at 100 μM compound. COX1 and COX2 inhibition can be determined with a COX inhibitor screening kit from e.g., Cayman Chemical, Ann Arbor, Mich. (Cat. #560131). […] Representative compounds found to lower Aβ42 levels using the previously described assay by at least 50% of DMSO control at concentrations ranging from 30-80 μM include compounds 1, 11, 21, 22, 24, 25, 26, 38, 43, 64, 67, 98, 100, and 102. Particularly preferred compounds of Formula I-Va for use in the methods and embodiments of the invention include those in Tables 2-7 below.

COX1 = biological target: T2, COX1 (Ovis aries, UniProt P05979); test: COX inhibitor screening kit (Cayman Chemical), COX1; assay type: biochemical; conditions: 100 μM compound
T2 construct: purchased Cayman Chemical, Ann Arbor, Mich; 560131
T2 sequence (P05979 25-600): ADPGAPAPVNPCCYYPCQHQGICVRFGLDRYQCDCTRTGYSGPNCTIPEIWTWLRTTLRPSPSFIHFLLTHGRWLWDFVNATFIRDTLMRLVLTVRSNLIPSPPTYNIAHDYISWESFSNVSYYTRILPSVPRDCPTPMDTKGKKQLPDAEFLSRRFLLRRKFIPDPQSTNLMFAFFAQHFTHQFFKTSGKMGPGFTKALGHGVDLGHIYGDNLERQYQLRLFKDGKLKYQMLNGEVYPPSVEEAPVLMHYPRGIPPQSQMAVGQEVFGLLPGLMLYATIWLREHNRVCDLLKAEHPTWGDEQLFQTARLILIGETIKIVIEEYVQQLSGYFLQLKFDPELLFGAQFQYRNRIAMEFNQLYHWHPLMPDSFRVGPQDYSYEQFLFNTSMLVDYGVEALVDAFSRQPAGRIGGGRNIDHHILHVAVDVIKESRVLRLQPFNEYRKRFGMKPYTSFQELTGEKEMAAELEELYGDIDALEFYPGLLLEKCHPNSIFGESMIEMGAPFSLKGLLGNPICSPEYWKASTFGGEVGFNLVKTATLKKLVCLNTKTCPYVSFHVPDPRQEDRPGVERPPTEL
Description: as §1, §2

[1] = clinical trials; rofecoxib at 25 mg daily; cited from earlier work
[2] = patients with mild cognitive impairment; 4.5% for placebo; cited from earlier work

| SMILES | inhibition of COX2 (COX2) | inhibition of COX1 (COX1) | efficacy for treating AD [1] | patients who developed AD [2] [%] |
| --- | --- | --- | --- | --- |
| Cc1c(CC(=O)O)c2ccccc2n1C(=O)c1ccc(OC(F)(F)F)cc1 [Compound 10, 1-(4-trifluoromethoxybenzoyl)-2-methylindole-3-acetic acid] | not significantly inhibit | not significantly inhibit | – | – |
| Cc1c(CC(=O)O)c2ccccc2n1Cc1ccc(Br)cc1 [Compound 19, 1-(4-bromobenzyl)-2-methylindole-3-acetic acid] | not significantly inhibit | not significantly inhibit | – | – |
| O=C(O)c1cc([N+](=O)[O-])ccc1NCc1ccc(Cl)c(Cl)c1 [Compound 40, 2-(3,4-dichlorobenzylamino)-5-nitrobenzoic acid] | not significantly inhibit | not significantly inhibit | – | – |
| O=C(O)c1cc([N+](=O)[O-])ccc1NCc1cccc(Cl)c1 [Compound 43, 2-(3-chlorobenzylamino)-5-nitrobenzoic acid] | not significantly inhibit | not significantly inhibit | – | – |
| COc1ccc(-c2cccc(CC(=O)O)c2)cc1 [Compound 72, (4′-Methoxy-biphenyl-3-yl)-acetic acid] | not significantly inhibit | not significantly inhibit | – | – |
| O=C(O)c1cc2cc(OCc3ccccc3)ccc2n1Cc1ccc(C(F)(F)F)cc1 [Compound 97, 5-benzyloxy-1-(4-trifluoromethylbenzyl)-1H-indole-2-carboxylic acid] | not significantly inhibit | not significantly inhibit | – | – |
| COc1ccc2cc([C@H](C)C(=O)O)ccc2c1 [Naproxen] | – | – | failed to show efficacy | – |
| CS(=O)(=O)c1ccc(C2=C(c3ccccc3)C(=O)OC2)cc1 [rofecoxib] | – | – | failed to show efficacy | 6.4 |
